Experimental findings from US20090093473A1, “Spiro-benzimidazoles as inhibitors of gastric acid secretion” (priority 2005, published 2009) are described below.

A value given as a limit tells only on which side of the number the result lay.

Data set [1] relates to pentagastrin-stimulated acid secretion of the perfused rat stomach. Put plainly: Secretion-inhibiting action on the perfused rat stomach (pentagastrin-stimulated acid secretion). Type of data set: in vivo. The settings on record: intraduodenal, anesthetized CD rat, dose 1 μmol/kg i.d. The text has this: Testing of the Secretion-Inhibiting Action on the Perfused Rat Stomach
In Table A which follows, the influence of the compounds of the formula 1 according to the invention on the pentagastrin-stimulated acid secretion of the perfused rat stomach after intraduodenal administration in vivo is shown.
The abdomen of anesthetized rats (CD rat, female, 200-250 g; 1.5 g/kg i.m. urethane) was opened after tracheotomy by a median upper abdominal incision and a PVC catheter was fixed transorally in the esophagus and another via the pylorus such that the ends of the tubes just projected into the gastric lumen. The catheter leading from the pylorus led outward into the right abdominal wall through a side opening.
After thorough rinsing (about 50-100 ml), warm (37° C.) physiological NaCl solution was conbinuously passed through the stomach (0.5 ml/min, pH 6.8-6.9; Braun-Unita I). The pH (pH meter 632, glass electrode EA 147; φ=5 mm, Metrohm) and, by titration with a freshly prepared 0.01N NaOH solution to pH 7 (Dosimat 665 Metrohm), the secreted HCl were determined in the effluent in each case collected at an interval of 15 minutes.
The gastric secretion was stimulated by continuous infusion of 1 μg/kg (=1.65 mllh) of i.v. pentagastrin (left femoral vein) about 30 min after the end of the operation (i.e. after determination of 2 preliminary fractions). The substances to be tested were administered intraduodenally in a 2.5 ml/kg liquid volume 60 min after the start of the continuous pentagastrin infusion. The body temperature of the animals was kept at a constant 37.8-38° C. by infrared irradiation and heat pads (automatic, stepless control by means of a rectal temperature sensor).

In the case of `Cc1nc2c3c(c(C(=O)N4CCCC4)cc2n1C)CCC1(Cc2ccccc2C1)N3` [Example 22, 2,3-dimethyl-5-(pyrrolidin-1-ylcarbonyl)-1′,3,3′,6,7,9-hexahydrospiro[imidazo[4,5-h]-quinoline-8,2′-indene]], the melting point – broadly, the temperature of the solid-liquid transition – is 263 to 264 °C. For the same molecule, the inhibition in vivo (in general, the drop in the measured response relative to a control, in per cent) at 1 µmol/kg in data set [1] was > 80%.
`Cc1nc2c3c(c(C(=O)N4CCC4)cc2n1C)CCC1(Cc2ccccc2C1)N3` [Example 23, 5-(azetidin-1-ylcarbonyl)-2,3-dimethyl-1′,3,3′,6,7,9-hexahydrospiro[imidazo[4,5-h]-quinoline-8,2′-indene]] returned a melting point of 222 to 223 °C. Moreover, the inhibition in vivo at 1 µmol/kg in data set [1] is > 80%.
The like results for `Cc1nc2c3c(c(C(=O)NC4CC4)cc2n1C)CCC1(Cc2ccccc2C1)N3` [Example 24, N-cyclopropyl-2,3-dimethyl-1′,3,3′,6,7,9-hexahydrospiro[imidazo[4,5-h]quinoline-8,2′-indene]-5-carboxamide] were, in that order, 247 to 248 °C and > 80%.
In the case of `Cc1nc2c3c(c(C(=O)N4CCOCC4)cc2n1C)CCC1(Cc2ccccc2C1)N3` [Example 25, 2,3-dimethyl-5-(morpholin-4-ylcarbonyl)-1′,3,3′,6,7,9-hexahydrospiro[imidazo[4,5-h]-quinoline-8,2′-indene]], the melting point was 284 to 285 °C. The inhibition in vivo at 1 µmol/kg in data set [1] was > 80%.
The like results for `COCCCNC(=O)c1cc2c(nc(C)n2C)c2c1CCC1(Cc3ccccc3C1)N2` [Example 27, N-(3-methoxypropyl)-2,3-dimethyl-1′,3,3′,6,7,9-hexahydrospiro[imidazo[4,5-h]quinoline-8,2′-indene]-5-carboxamide] were, in that order, 188 to 189 °C and > 80%.
